The source of these data is US20070213339A1 (Bayer Pharmaceuticals Corporation, priority 2004, published 2007).

The test system of this test is Colo205 human colon carcinoma cell line. As to the kind of experiment: In vitro tumor cell proliferation assay (MTS, CellTiter 96 Aqueous One Solution). Format: cell-based. Conditions: COLO 205, Colo205 cells, 72 hours compound exposure, MTS absorbance at 490 nm, read-out: IC50 (concentration of test compound required to inhibit proliferation of 50% of the cells). How it is done:
In Vitro Tumor Cell Proliferation Assay
The adherent H460 human non-small cell lung carcinoma and Colo205 human colon carcinoma cell lines were purchased from the American Type and Culture Collection (ATCC, Manassas, Va.) and maintained in RPMI-1640 growth media supplemented with 10% heat inactivated fetal bovine serum (Gibco, Invitrogen Corp. Grand Island, N.Y.). At 37° C. in a humidified atmosphere of 5% CO2.
The CellTiter 960 Aqueous One Solution kit, MTS, (Promega, Madison, Wis.) was used to measure proliferation of tumor cell lines in vitro. This method monitors the bioreduction of a tetrazolium dye as a measure of cell viability. On Day 0, exponentially growing cells were trypsinized, resuspended in RPMI-1640 growth media supplemented with 10% FCS, 100 u/ml of penicillin G and 100 ug/ml of streptomycin sulfate, and seeded at 2000 cells per well into 96 well microtiter plates. Cells were incubated overnight in a humidified atmosphere of 5% CO2 at 37° C. On Day 1, serial dilutions of compounds were prepared at 2× the finial assay concentration. One hundred microliters of 2× solution was added to test wells in duplicate and control wells received no test compound. The final drug concentration ranged from 0 to 10-20 um in a 5 point dose-response curve. Cells were incubated in the presence of test compounds in a humidified atmosphere of 5% CO2 at 37° C. for 72 hours. After 72 hours of compound exposure, 40 ul of Promega CellTiter 960 Aqueous One Solution was added to each well and absorbance at 490 n-M was measured using a multi-well plate reader. Percent inhibition of proliferation was calculated using the following formula: 100×(1−Absorbancetreated−Background/(Absorbancecontrol−Background)
Absorbancetreated=absorbance at 490 nm in test wells, cells with test compound
Absorbancecontrol=absorbance at 490 nm in control wells, cells with no test compound
Background=absorbance 490 nm in wells containing media and no cells
The concentration of test compound required to inhibit proliferation of 50% of the cells (IC50) was determined by linear regression analysis.
Representative compounds of the invention were tested in the above-described Colo205 human colon carcinoma cell line in vitro assay and found to inhibit human colon carcinoma cell proliferation, and are summarized as follows: […]
In the case of `CC1CCC(C)N1Cc1ccc(-n2cc(C(=O)O)c(=O)c3cc(F)c(N4CCN(c5ccccn5)CC4)c(Cl)c32)cc1` (stereo not shown) [Example 19, 8-chloro-1-{4-[(2,5-dimethylpyrrolidin-1-yl)methyl]phenyl}-6-fluoro-4-oxo-7-(4-pyridin-2-ylpiperazin-1-yl)-1,4-dihydroquinoline-3-carboxylic acid], the IC50 was below 500 nM.
The figure for `N#Cc1cccnc1N1CCN(c2c(F)cc3c(=O)c(C(=O)O)cn(-c4ccc(CN5CCCC5)cc4)c3c2OC(F)(F)F)CC1` [Example 125, 7-[4-(3-cyanopyridin-2-yl)piperazin-1-yl]-6-fluoro-4-oxo-1-[4-(pyrrolidin-1-ylmethyl)phenyl]-8-(trifluoromethoxy)-1,4-dihydroquinoline-3-carboxylic acid] is below 500 nM.
The figure for `CCN(C)Cc1ccc(-n2cc(C(=O)O)c(=O)c3cc(F)c(N4CCN(c5ccc(F)cc5)CC4)c(OC(F)(F)Cl)c32)cc1` [Example 167, 8-[chloro(difluoro)methoxy]-1-(4-{[ethyl(methyl)amino]methyl}phenyl)-6-fluoro-7-[4-(4-fluorophenyl)piperazin-1-yl]-4-oxo-1,4-dihydroquinoline-3-carboxylic acid] is below 500 nM; for `CON(C)Cc1ccc(-n2cc(C(=O)O)c(=O)c3cc(F)c(N4CCN(c5ncccn5)CC4)c(Cl)c32)cc1` [Example 50, 8-chloro-6-fluoro-1-(4-{[methoxy(methyl)-amino]methyl}phenyl)-4-oxo-7-(4-pyrimidin-2-ylpiperazin-1-yl)-1,4-dihydroquinoline-3-carboxylic acid] it is 2000 to 20000 nM; for `O=C(O)c1cn(-c2ccc(CNC3CC3)cc2)c2c(Cl)c(N3CCN(c4ncccn4)CC3)c(F)cc2c1=O` [Example 60, 8-chloro-1-{4-[(cyclopropylamino)methyl]-phenyl}-6-fluoro-4-oxo-7-(4-pyrimidin-2-ylpiperazin-1-yl)-1,4-dihydroquinoline-3-carboxylic acid] it is below 500 nM.
The figure for `O=C(O)c1cn(-c2ccc(CN3CCCC3)cc2F)c2c(Cl)c(N3CCN(c4ccc(Cl)cc4)CC3)c(F)cc2c1=O` [Example 42, 8-chloro-7-[4-(4-chlorophenyl)piperazin-1-yl]-6-fluoro-1-[2-fluoro-4-(pyrrolidin-1-ylmethyl)phenyl]-4-oxo-1,4-dihydroquinoline-3-carboxylic acid] is below 500 nM; for `COc1cc(CN2CCCCC2)ccc1-n1cc(C(=O)O)c(=O)c2cc(F)c(N3CCN(c4ccc(F)cc4)CC3)c(Cl)c21` [Example 177, 8-chloro-6-fluoro-7-[4-(4-fluorophenyl)-piperazine-1-yl]-1-(2-methoxy-4-piperidine-1-ylmethyl-phenyl)-4-oxo-1,4-dihydroquinoline-3-carboxylic acid] it is below 500 nM.
On to `COc1c(N2CCN(c3ccc(C#N)cc3)CC2)c(F)cc2c(=O)c(C(=O)O)cn(-c3ccc(CN4CCCCC4)cc3)c12` [Example 192, 7-[4-(4-cyanophenyl)-piperazine-1-yl]-6-fluoro-8-methoxy-4-oxo-1-(4-piperidin-1-ylmethyl-phenyl)-1,4-dihydroquinoline-3-carboxylic acid], for which the IC50 is below 500 nM.
The figure for `CN(C)CCc1ccc(-n2cc(C(=O)O)c(=O)c3cc(F)c(N4CCN(c5ncccn5)CC4)c(Cl)c32)cc1` [Example 71, 8-chloro-1-{4-[2-(dimethylamino)ethyl]phenyl}-6-fluoro-4-oxo-7-(4-pyrimidin-2-ylpiperazin-1-yl)-1,4-dihydroquinoline-3-carboxylic acid] is 2000 to 20000 nM; for `N#Cc1ccccc1N1CCN(c2c(F)cc3c(=O)c(C(=O)O)cn(-c4ccc(CN5CC[C@@H](O)C5)cc4)c3c2Cl)CC1` [Example 32, 8-chloro-7-[4-(2-cyanophenyl)piperazin-1-yl]-6-fluoro-1-(4-{[(3R)-3-hydroxypyrrolidin-1-yl]methyl}phenyl)-4-oxo-1,4-dihydroquinoline-3-carboxylic acid] it is below 500 nM.
The figure for `Cc1cccc(N2CCN(c3c(F)cc4c(=O)c(C(=O)O)cn(-c5ccc(CN6CCCC6)cc5)c4c3Cl)CC2)n1` [Example 13, 8-chloro-6-fluoro-7-[4-(6-methylpyridin-2-yl)-piperazin-1-yl]-4-oxo-1-[4-(pyrrolidin-1-ylmethyl)phenyl]-1,4-dihydroquinoline-3-carboxylic acid] is below 500 nM; for `CC(C)N(Cc1ccc(-n2cc(C(=O)O)c(=O)c3cc(F)c(N4CCN(c5ccccn5)CC4)c(Cl)c32)cc1)C1CCCCC1` [Example 174, 8-chloro-1-{4-[(2-cyclohexyl-isopropyl-amino)-methyl]-phenyl}-6-fluoro-4-oxo-7-(4-pyridin-2-yl-piperazine-1-yl)-1,4-dihydro-quinoline-3-carboxylic acid] it is below 500 nM; for `COc1c(N2CCN(c3ccc([N+](=O)[O-])cc3F)CC2)c(F)cc2c(=O)c(C(=O)O)cn(-c3ccc(CN4CCCC4)cc3)c12` [Example 87, 6-fluoro-7-[4-(2-fluoro-4-nitrophenyl)piperazin-1-yl]-8-methoxy-4-oxo-1-[4-(pyrrolidin-1-ylmethyl)phenyl]-1,4-dihydroquinoline-3-carboxylic acid] it is 500 to 2000 nM.
The figure for `N#Cc1cc(C(F)(F)F)ccc1N1CCN(c2c(F)cc3c(=O)c(C(=O)O)cn(-c4ccc(CN5CCCC5)cc4)c3c2Cl)CC1` [Example 5, 8-chloro-7-{4-[2-cyano-4-(trifluoromethyl)-phenyl]piperazin-1-yl}-6-fluoro-4-oxo-1-[4 (pyrrolidin-1-ylmethyl)phenyl]-1,4-dihydroquinoline-3-carboxylic acid] is 500 to 2000 nM.
As to `O=C(O)c1cn(-c2ccc(CN3CCCC3)cc2F)c2c(Cl)c(N3CCN(c4ccc(F)cc4)CC3)c(F)cc2c1=O` [Example 41, 8-chloro-6-fluoro-7-[4-(4-fluorophenyl)-piperazin-1-yl]-1-[2-fluoro-4-(pyrrolidin-1-ylmethyl)phenyl]-4-oxo-1,4-dihydroquinoline-3-carboxylic acid], the IC50 was below 500 nM.
Take `COc1c(N2CCN(c3ccccc3SC)CC2)c(F)cc2c(=O)c(C(=O)O)cn(-c3ccc(CN4CCCC4)cc3)c12` [Example 88, 6-fluoro-8-methoxy-7-{4-[2-(methylthio)phenyl]-piperazin-1-yl}-4-oxo-1-[4-(pyrrolidin-1-ylmethyl)phenyl]-1,4-dihydroquinoline-3-carboxylic acid]: the IC50 is below 500 nM.
`COc1c(N2CCN(c3ccccc3[N+](=O)[O-])CC2)c(F)cc2c(=O)c(C(=O)O)cn(-c3ccc(CN4CCCCC4)cc3)c12` [Example 91, 6-fluoro-8-methoxy-7-[4-(2-nitrophenyl)-piperazin-1-yl]-4-oxo-1-[4-(piperidin-1-ylmethyl)phenyl]-1,4-dihydroquinoline-3-carboxylic acid]: the IC50 was 500 to 2000 nM.
In the case of `O=C(O)c1cn(-c2ccc(CNCC3CC3)cc2)c2c(Cl)c(N3CCN(c4ccccn4)CC3)c(F)cc2c1=O` [Example 170, 8-chloro-1-(4-{[(cyclopropylmethyl)amino]methyl}phenyl)6-fluoro-4-oxo-7-(4-pyridin-2-ylpiperazin-1-yl)-1,4-dihydroquinoline-3-carboxylic acid], the IC50 is below 500 nM.
`COc1c(N2CCN(c3ccc(Cl)cc3)CC2)c(F)cc2c(=O)c(C(=O)O)cn(-c3ccc(CN4CCCCC4)cc3)c12` [Example 90, 7-[4-(4-chlorophenyl)piperazin-1-yl]-6-fluoro-8-methoxy-4-oxo-1-[4-(piperidin-1-ylmethyl)phenyl]-1,4-dihydroquinoline-3-carboxylic acid]: the IC50 is below 500 nM.
Consider `O=C(O)c1cn(-c2ccc(CN3CCCC3)cc2)c2c(OC(F)(F)Cl)c(N3CCN(c4ccccn4)CC3)c(F)cc2c1=O` [Example 146, 8-[chloro(difluoro)methoxy]-6-fluoro-4-oxo-7-(4-pyridin-2-ylpiperazin-1-yl)-1-[4-(pyrrolidin-1-ylmethyl)phenyl]-1,4-dihydroquinoline-3-carboxylic acid], for which the IC50 is below 500 nM.
The figure for `COc1ccccc1N1CCN(c2c(F)cc3c(=O)c(C(=O)O)cn(-c4ccc(CN(C)C)cc4)c3c2OC)CC1` [Example 99, 1-{4-[(dimethylamino)methyl]phenyl}-6-fluoro-8-methoxy-7-[4-(2-methoxyphenyl)piperazin-1-yl]-4-oxo-1,4-dihydroquinoline-3-carboxylic acid] is 500 to 2000 nM.
The figure for `CN(C)Cc1ccc(-n2cc(C(=O)O)c(=O)c3cc(F)c(N4CCN(c5ccc(F)cc5)CC4)c(OC(F)(F)F)c32)cc1` [Example 131, 1-{4-[(dimethylamino)methyl]phenyl}-6-fluoro-7-[4-(4-fluorophenyl)piperazin-1-yl]-4-oxo-8-(trifluoromethoxy)-1,4-dihydroquinoline-3-carboxylic acid] is below 500 nM.
